Measurements: patent US20140378529A1, “COLLATERAL GENE INACTIVATION BIOMARKERS AND TARGETS FOR CANCER THERAPY” (Board Regents, The University of Texas System, priority 2011, published 2014)
Where two headings read alike, the source gives them in different places.

Assays:
[1] = Table 5, cited from earlier work
enolase = details: cited from earlier work
[2] = tested on: ENO1 heterozygous cells (D502-MG and U343); assay: Cell growth / toxicity in ENO1 heterozygous GBM cells; format: cell-based, human
Description: (§1) For crystal violet assays, 10,000 cells were seeded in a 6-well plate for each time point. At the indicated time point, cells were fixed with 10% formalin and stained with crystal violet solution for 1 hour. Dye extraction was performed using 10% acetic acid solution and absorbance was read at 590 nm. Cell titer Glo® experiments were performed as indicated by the manufacturer. 1000 cells/well were plated in a 96 well plate for each time point and luminescence readings were taken every 24 hours. All experiments were performed in triplicate.
(§2) Structure and purity were verified by NMR. […] Given the instability of the compound, media was replaced every 5 days and fresh inhibitor added with fresh media.
(§3) Cell growth of shRNA- or PhAH-treated cell lines was assayed either through crystal violet staining or using the Promega CellTiter-Glo proliferation kit (Roche) or alternatively, in vivo, by measuring confluence with the IncuCyte (Essen BioScience). […] Dye extraction was performed using 10% acetic acid solution, and absorbance was read at 590 nm. CellTiter-Glo experiments were performed according to the manufacturer's instructions; 10^3 cells/well were plated in a 96-well plate for each time point, and luminescence readings were taken every 24 h. […] Soft agar (anchorage-independent) growth was monitored in 6-well plates seeded with 10^4 cells of the indicated genotype. […]

[3] = tested on: ENO1 WT GBM cells and normal astrocytes; assay: Cell growth / toxicity in ENO1 WT GBM cells and normal astrocytes; format: cell-based, human
Description: as §1, §2, §3

yeast enolase = yeast enolase (Saccharomyces cerevisiae, UniProt P00924); details: read-out: inhibitory constant on yeast enolase; Anderson et al., 1984; cited from earlier work
Chain of yeast enolase (P00924 whole entry): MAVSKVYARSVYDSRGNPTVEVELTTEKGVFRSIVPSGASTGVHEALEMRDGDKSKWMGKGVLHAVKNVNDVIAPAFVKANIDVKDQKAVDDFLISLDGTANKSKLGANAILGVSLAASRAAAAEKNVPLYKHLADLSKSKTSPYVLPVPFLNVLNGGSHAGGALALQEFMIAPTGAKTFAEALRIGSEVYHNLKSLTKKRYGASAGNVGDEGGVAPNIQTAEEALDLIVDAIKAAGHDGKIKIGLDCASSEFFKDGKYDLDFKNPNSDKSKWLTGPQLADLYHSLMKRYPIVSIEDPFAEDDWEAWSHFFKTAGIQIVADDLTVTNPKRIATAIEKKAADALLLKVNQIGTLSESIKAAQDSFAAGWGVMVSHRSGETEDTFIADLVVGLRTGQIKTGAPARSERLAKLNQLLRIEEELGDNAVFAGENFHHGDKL

SK-MEL-2 cells [4] = details: NCI-60 database; cited from earlier work
HMEL cells = assay: Borrelidin growth, HMEL (TARS WT); format: cell-based, human
From the text: (§4) The effect of various concentrations of Borrelidin on the growth of the four melanoma cells lines over time was also studied (FIG. 21).

SK-MEL-2 cells [5] = assay: Borrelidin growth and cytotoxicity, SK-MEL-2 (TARS Het); format: cell-based, human
Description: as §4
To this end, the inventors ran the same live growth assay, except starting with a high confluence of SK-MEL-2 cells at time zero. Under these conditions it became apparent that concentrations of Borrelidin at or above 15 nM are cytotoxic to SK-MEL-2 cells, while lower concentrations are growth inhibitory (FIG. 22).

451 Lu cells = assay: Borrelidin growth, 451 Lu (TARS deficient); format: cell-based, human
From the text: as §4

SK-MEL-5 cells = assay: Borrelidin growth, SK-MEL-5 (TARS WT); format: cell-based, human
From the text: as §4

D423-MG cells = assay: Orthotopic brain tumor formation; format: in vivo, SCID mice; details: D423-MG injected intracranially; vs shNT
Description: Injection of D423-MG cells was performed as previously described (in Zheng et al., 2008) SCID mice (Charles River) aged 6-12 weeks were placed into stereotactic apparatus equipped with a Z axis (Stoelting). A hole was bored in the skull 0.5 mm anterior and 3.0 mm lateral to the bregma using a dental drill. One hundread thousand cells in Hanks Buffered Salt Solution were injected into the right caudate nucleus 3 mm below the surface of the brain using a 10-μl Hamilton syringe with an unbeveled 30 gauge needle. The scalp was closed using a 9-mm Autoclip Applier. Animals were followed daily for the development of neurological deficits.
The in vivo tumorigenic potential of D423-MG cells transduced with non-targeting hairpin or shENO2-3 delivered through pGIPZ was determined as previously described (Zheng et al., 2008). SCID mice (Charles River) under deep anesthesia were placed into a stereotactic apparatus equipped with a z axis (Stoelting). Then, 3×10^5 cells were injected intracranially into the right caudate nucleus 3 mm below the surface of the brain, using a 10-μl Hamilton syringe. The animals were followed daily for development of neurological deficits. All mice experiments were performed with the approval of the Harvard Cancer Center and Dana-Farber Cancer Institute Institutional Animal Care and Use Committee.

[6] = tested on: ENO1-null cells (D423-MG, Gli56); assay: Cell growth / toxicity in ENO1-null GBM cells; format: cell-based, human; details: for growth of ENO1-null cells: doxycycline-inducible TRIPZ, D423-MG
Description: as §1, §2
(§5) Cell growth of shRNA- or PhAH-treated cell lines was assayed either through crystal violet staining or using the Promega CellTiter-Glo proliferation kit (Roche) or alternatively, in vivo, by measuring confluence with the IncuCyte (Essen BioScience). Growth curves using the IncuCyte were generated by imaging every 2 hours with quadruplicate replicates. For crystal violet assays, 10^4 cells were seeded in a 6-well plate for each time point. At the indicated time point, cells were fixed with 10% formalin and stained with crystal violet solution for 1 h. Dye extraction was performed using 10% acetic acid solution, and absorbance was read at 590 nm. CellTiter-Glo experiments were performed according to the manufacturer's instructions; 10^3 cells/well were plated in a 96-well plate for each time point, and luminescence readings were taken every 24 h. All experiments were performed in triplicate. Soft agar (anchorage-independent) growth was monitored in 6-well plates seeded with 10^4 cells of the indicated genotype. The medium contained DMEM with 10% FBS; the top agar contained 0.4% low melting agarose, while the bottom agar contained 1% low melting agarose. Growth was monitored by fluorescence (GFP) and after 28 days colonies were stained with iodonitrotetrazolium chloride (Sigma-Aldrich) and counted.
Structure and purity were verified by NMR. […]

enolase 2 protein = assay: shRNA knockdown of ENO2 expression (western blot); format: cell-based, human; details: pGIPZ vector; D423-MG and D502-MG; vs shNT
From the text: Two of these hairpins were in the pLKO.1 vector (ShENO2-1 and shENO2-2) and the remaining two were in the Expression Arrest GIPZ (shENO2-3) and TRIPZ (shENO2-4) shRNAmir vectors (Open Biosystems, Huntsville, Ala.). The hairpin in the GIPZ vector was cloned into the TRIPZ vector using a protocol provided by the manufacturer. The TRIPZ vector is a doxycycline inducible system with a Red fluorescent protein reporter which is only expressed upon doxycycline induction. Recombinant lentivirus was produced by transient transfection of 293T cells following a standard protocol. Briefly, 72 μg of the shRNA plasmid, 54 μg of Delta 8.9 and 18 μg of VSVG plasmids were transfected using Fugene® (Roche, Indianapolis, Ind.) into 293T cells plated in 245 mm2 dishes. Viral supernatant was collected 72 hours after transfection, concentrated by centrifugation at 23,000 rpm and resuspended in cell growth medium. For transduction, viral solutions were added to cell culture medium containing 4 μg/mL polybrene; 48 hours after infection cells were selected using 2 μg/mL puromycin and tested for ENO2 knockdown by western blot.
The hairpin in the GIPZ vector was cloned into the TRIPZ vector using a protocol provided by the manufacturer. The TRIPZ vector is a doxycycline-inducible system with a red fluorescent protein reporter that is expressed only upon doxycycline induction. […]

D423-MG ENO1-null cells = assay: Soft agar colony formation assay; format: cell-based, human; details: vs shNT
Description: Anchorage-independent growth assays were performed in duplicate or triplicate in 6 well plates. 10^4 of indicated cells per well were seeded in DMEM+10% FBS containing 0.4% low-melting agarose on the top of bottom agar containing 1% low-melting agarose DMEM+10% FBS. After 14-21 days, colonies were stained with iodonitrotetrazoliumchloride (Sigma-Aldrich) and counted.
as §5, with “At the indicated time point, cells were fixed with 10% formalin and stained with crystal violet solution for 1 h.” left out, “All experiments were performed in triplicate.” left out, “The medium contained DMEM with 10% FBS; the top agar contained 0.4% low melting agarose, while the bottom agar contained 1% low melting agarose.” left out

ENO1-null D423-MG cells = assay: Relative growth with receptor tyrosine kinase inhibitors or rapamycin; format: cell-based, human; details: combination of sorafenib, lapatinib and PHA665752
From the text: Given the instability of the compound, the medium was replaced every 5 days and fresh inhibitor added with fresh medium.

[7] = Table 5, published enolase inhibitors
[8] = Table 4, known enolase inhibitors
[9] = printed: SK-MEL-2 cell line, which is also wild-type for TARS

Compound: 2-fluoro-2-phosphonoacetohydroxamate
- pKa [1]: 8.1
- Ki (enolase; [7]): 1400 nM

Compound: NC=C(OP(=O)(O)O)C(=O)O [3-aminoenolpyruvate-2-phosphate]
- Ki (enolase; [8]): 100 nM
- Ki (enolase; [7]): 100 nM

Compound: O=[N+]([O-])C(CO)CP(=O)(O)O (centres unmarked) [(3-hydroxy-2-nitropropyl)phosphonate]
- pKa [1]: 8.1
- Ki (enolase; [8]): 1 nM
- Ki (enolase; [7]): 6 nM

Compound: CC[C@H]1/C=C/C=C/C[C@@H](C)[C@H](O)[C@@](C)(O)C(=O)[C@@H](C)[C@H](O)[C@@H](C)C(=O)[C@@H](C)[C@H](O)[C@@H](C)/C=C/C(=O)O[C@@H]2[C@H](C)[C@H](CC1)O[C@]1(CC[C@H](C)[C@H](C[C@@H](C)O)O1)[C@H]2C [oligomycin]
- effect of oligomycin on its own ([2]; oligomycin 10 nM): minimal effects

Compound: O=CC(OP(=O)(O)O)C(=O)O [D-tartronate semialdehyde phosphate]
- Ki (enolase; [8]): 10000 nM
- Ki (enolase; [7]): 10000 nM

Compound: O=C(CP(=O)(O)O)NO [PhAH, phosphonoacetohydroxamate]
- concentration above which PhAH has more than minimal effect on growth [3]: higher than 50 μM
- pKa ([1]; listed as Phosphonoacetohydroxamate): 10.2
- times lower doses for similar growth inhibition compared with normal human astrocytes [2]: about 8 times
- Ki (yeast enolase): 0.015 nM

Compound: C[C@@H]1C[C@H](C)C[C@H](C)[C@@H](O)CC(=O)O[C@H]([C@@H]2CCC[C@H]2C(=O)O)C/C=C/C=C(/C#N)[C@H](O)[C@@H](C)C1 [Borrelidin]
- Sensitivity to borrelidin (IC50) in a panel of cancer cell lines (SK-MEL-2 cells [4]): lowest IC50
- effect on growth at low concentrations (HMEL cells): minimal to no effect
- sensitivity of growth at the highest tested concentration (HMEL cells; 62.5 nM): resistant
- effect on growth at low concentrations (SK-MEL-2 cells [5]; SK-MEL-2): stalled the growth
- lowest concentration with at least partial sensitivity (SK-MEL-2 cells [5]; SK-MEL-2): ≥ 3.9 nM
- cytotoxic concentration (SK-MEL-2 cells [5]; SK-MEL-2, high confluence at time zero): ≥ 15 nM
- concentration that completely inhibited growth (SK-MEL-2 cells [5]; SK-MEL-2, low initial cell density): 31.25 nM
- concentration that nearly inhibited growth (451 Lu cells): 62.5 nM
- sensitivity to Borrelidin treatment (451 Lu cells): intermediate sensitivity
- effect on growth at low concentrations (SK-MEL-5 cells; SK-MEL-5): minimal to no effect
- sensitivity of growth at 62.5 nM (SK-MEL-5 cells; [9]): partially sensitive
- sensitivity of growth at concentrations less than 31.25 nM (SK-MEL-5 cells; [9]): largely resistant

Compound: F [Fluoride]
- Ki (M) (enolase; [8]): Varied depending
- Ki (M) (enolase; [7]): Varied

Compound: d-(phosphonoethyl)nitrolate
- Ki (enolase; [8]): 14 nM
- Ki (enolase; [7]): 14 nM

Compound: O=[N+]([O-])CCP(=O)(O)O [(nitroethyl)phosphonate]
- pKa [1]: 8.5
- Ki (enolase; [8]): 1000 nM
- Ki (enolase; [7]): 1000 nM

Compound: 5′-CGGCCTTCAACGTGATCAA-3′ (expressed or natural sequence) [shENO2-3]
- in vivo tumorigenic properties (D423-MG cells): dramatically decreased
- growth of ENO1-null cells [6]: dramatically inhibited growth
- cell proliferation ([6]; pGIPZ, only in the context of ENO1 genomic deletion (D423-MG)): dramatically slowed
- reduction of expression of ENO2 (enolase 2 protein): > 70%
- soft agar colony formation (D423-MG ENO1-null cells): dramatically decreased

Compound: Cc1[nH]c(/C=C2\C(=O)Nc3ccc(S(=O)(=O)Cc4c(Cl)cccc4Cl)cc32)c(C)c1C(=O)N1CCC[C@@H]1CN1CCCC1 [PHA665752]
- sensitivity of ENO1-null D423-MG cells versus ENO1 WT GBM cell lines (ENO1-null D423-MG cells): no more sensitive

Compound: CS(=O)(=O)CCNCc1ccc(-c2ccc3ncnc(Nc4ccc(OCc5cccc(F)c5)c(Cl)c4)c3c2)o1 [lapatinib]
- sensitivity of ENO1-null D423-MG cells versus ENO1 WT GBM cell lines (ENO1-null D423-MG cells): no more sensitive

Compound: 5′-GGGACTGAGAACAAATCCA-3′ (expressed or natural sequence) [shENO2-4]
- growth of ENO1-null cells [6]: dramatically inhibited growth
